Reference: patent US8975417B2, “Pyrazolopyrrolidine derivatives and their use in the treatment of disease” (Novartis AG, priority 2013, dated 2015)

Tests used:
MV-4-11 cells = assay: Cell growth inhibition assay (CellTiter-Glo), MV-4-11; assay type: cell-based; conditions: Homo sapiens, MV4-11, read-out: MV-4-11 TGI
Description: (§1) Cell Growth Inhibition Assay
(§2) The human leukemia cell lines MV-4-11, THP-1 and K-562 were employed to characterize the effect of BET inhibitors on cellular proliferation and viability. Cells were obtained from the American Type Culture Collection (ATCC) and cultured at 37° C. in a humidified 5% CO2 incubator in the following media: MV-4-11: DMEM high glucose (Animed #1-26F01-I), 10% FCS (Animed #2-01F26-I), 4 mM L-Glutamine (Animed #5-10K50), 1 mM Sodium Pyruvate (Animed # G03625P), 1× Penicillin-Streptomycin (Animed # F12478P); K-562: Iscove's MEM (Animed #1-28F16-I), 10% FCS (Animed #2-01F26-I), 4 mM L-Glutamine (Animed #5-10K50), 1× Penicillin-Streptomycin (Animed # F12478P); THP-1: RPMI-1640 (Animed #1-41F01-I), 10% FCS (Animed #2-01F26-I), 2 mM L-Glutamine (Animed #5-10K50), 10 mM HEPES (Animed #5-31F100), 1 mM Sodium Pyruvate (Animed # G03625P), 1× Penicillin-Streptomycin (Animed # F12478P). The AML lines MV-4-11 and THP-1 are very sensitive to BET inhibitors and show massive cell death upon BET inhibition (Zuber et al., Nature, 478 (2011), 524-8). Compound-mediated suppression of cell proliferation/viability was assessed by quantification of cellular ATP levels using the CellTiter-Glo (CTG) reagent (Promega). Briefly, cells were seeded in 20 μl fresh medium into 384-well plates, followed by addition of 5 μL medium containing compound dilutions at 5-fold their final intended concentration. Dose-response effects were assessed by 3-fold serial dilutions of the test compound, starting at 10 μM. Following incubation of the cells for days at 37° C. and 5% CO2, the effect of inhibitors on cell viability was quantified following addition of 20 μl CTG and luminescence quantification (integration time: 100 ms) as per vendor manual, using a correspondingly equipped Tecan M200 multi-mode platereader (TECAN, Switzerland). For data analysis, the assay background value determined in wells containing medium, but no cells, was subtracted from all data points. To enable differentiation of cytotoxic from cytostatic compounds, the number of viable cells is assessed relative to that observed at the time of compound addition using a separate cell plate (day 0). The effect of a particular test compound concentration on cell proliferation/viability is expressed as percentage of the background- and day 0-corrected luminescence reading obtained for cells treated with vehicle only (DMSO, 0.1% final concentration), which is set as 100%, whereas that luminescence reading for wells containing medium is set as −100%. Compound concentrations leading to half-maximal (IC50) and total growth inhibition (TGI) were determined using standard four parameter curve fitting.

K-562 cells = assay: Cell growth inhibition assay (CellTiter-Glo), K-562; assay type: cell-based, human; conditions: Homo sapiens, K562, read-out: K-562 TGI
Description: as §1, §2

His-Brd4(44-477) = His-Brd4(44-477) (Homo sapiens (Human), UniProt O60885); assay: TR-FRET in-vitro binding assay for BRD4; conditions: biochemical
Procedure, shortened: (§3)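 Eight-point dilution series tested against in-house His-BRD2(60-472), BRD3(20-477) or BRD4(44-477) (45 nM in dispensed solution) binding acetyl-histone H4 (AcK5,8,12,16; 60 nM in dispensed solution). Incubation 35 min at 30 °C, pH 7.5 HEPES buffer; detection by TR-FRET using Eu-anti-His6 and streptavidin-allophycocyanin.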

His-Brd2(60-472) = His-Brd2(60-472) (Homo sapiens (Human), UniProt P25440); assay: TR-FRET in-vitro binding assay for BRD2; conditions: biochemical
Sequence of His-Brd2(60-472) (P25440 60-472): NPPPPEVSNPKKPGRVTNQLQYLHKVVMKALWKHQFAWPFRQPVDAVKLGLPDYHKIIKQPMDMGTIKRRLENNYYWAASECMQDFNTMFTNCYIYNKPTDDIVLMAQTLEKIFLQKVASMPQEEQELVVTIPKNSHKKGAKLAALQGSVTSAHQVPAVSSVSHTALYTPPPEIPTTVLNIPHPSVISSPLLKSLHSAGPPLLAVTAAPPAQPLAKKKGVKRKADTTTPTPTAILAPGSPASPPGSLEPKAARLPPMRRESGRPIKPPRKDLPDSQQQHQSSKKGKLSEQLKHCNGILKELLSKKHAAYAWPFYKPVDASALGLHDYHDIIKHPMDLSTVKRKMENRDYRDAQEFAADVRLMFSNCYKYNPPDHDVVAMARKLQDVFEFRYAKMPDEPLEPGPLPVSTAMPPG
Procedure, shortened: as §3

His-Brd3(20-477) = His-Brd3(20-477) (Homo sapiens (Human), UniProt Q15059); assay: TR-FRET in-vitro binding assay for BRD3; conditions: biochemical
Sequence of His-Brd3(20-477) (Q15059 20-477): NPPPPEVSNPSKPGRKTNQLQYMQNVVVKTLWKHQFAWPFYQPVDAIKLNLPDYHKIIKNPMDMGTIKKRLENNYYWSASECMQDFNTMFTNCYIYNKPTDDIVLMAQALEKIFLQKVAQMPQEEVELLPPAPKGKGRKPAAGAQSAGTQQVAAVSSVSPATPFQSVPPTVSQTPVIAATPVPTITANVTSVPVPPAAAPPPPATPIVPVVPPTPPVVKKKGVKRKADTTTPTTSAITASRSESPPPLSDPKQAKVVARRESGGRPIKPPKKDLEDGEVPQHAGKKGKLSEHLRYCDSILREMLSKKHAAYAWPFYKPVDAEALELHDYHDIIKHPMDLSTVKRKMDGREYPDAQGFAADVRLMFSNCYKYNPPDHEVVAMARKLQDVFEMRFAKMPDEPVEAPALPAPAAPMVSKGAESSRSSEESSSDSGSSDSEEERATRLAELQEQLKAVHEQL
Procedure, shortened: as §3

THP-1 cells = assay: Cell growth inhibition assay (CellTiter-Glo), THP-1; assay type: cell-based; conditions: Homo sapiens, read-out: THP-1 TGI
Description: as §1, §2

[1] = molecular target: His-CREBBP (1081-1197) bromodomain (Homo sapiens (Human), UniProt Q92793); assay: AlphaScreen in-vitro binding assay for CREBBP; conditions: biochemical
Sequence of His-CREBBP (1081-1197) bromodomain (Q92793 1081-1197): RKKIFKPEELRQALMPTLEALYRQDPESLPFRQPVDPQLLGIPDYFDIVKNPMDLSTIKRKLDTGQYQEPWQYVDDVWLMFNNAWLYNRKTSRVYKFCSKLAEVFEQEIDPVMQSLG
Procedure, shortened: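 Ni-chelate acceptor and streptavidin donor beads (45 µg/mL each, in 50 mM HEPES pH 7.5, 150 mM NaCl, 0.02% BSA) were then added for 60 min at room temperature. IC50 came from 8-point non-linear regression.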

Row | SMILES | IC50 (His-Brd4(44-477)) [µM] | IC50 (His-Brd2(60-472)) [µM] | IC50 (His-Brd3(20-477)) [µM] | IC50 [1] [µM] | IC (total growth inhibition) (MV-4-11 cells) [µM] | IC (total growth inhibition) (K-562 cells) [µM] | IC (total growth inhibition) (THP-1 cells) [µM]
1 | COc1ncc(-n2nc3c(c2C(C)C)C(c2ccc(Cl)cc2)N(c2cc(C)c4onc(C)c4c2)C3=O)c(OC)n1 (stereo not shown) [Example 46, 4-(4-chlorophenyl)-2-(2,4-dimethoxypyrimidin-5-yl)-5-(3,7-dimethylbenzo[d]-isoxazol-5-yl)-3-isopropyl-4,5-dihydropyrrolo[3,4-c]pyrazol-6(2H)-one] | 0.087 | 0.13 | 0.1 | 4.7 | 0.166 | > 10 | 0.323
2 | COc1ncc(-n2nc3c(c2C)C(c2ccc(Cl)cc2)N(c2cc(C)c(=O)n(C)c2)C3=O)c(OC)n1 (stereo not shown) [Example 56, 4-(4-chlorophenyl)-2-(2,4-dimethoxypyrimidin-5-yl)-5-(1,5-dimethyl-6-oxo-1,6-dihydropyridin-3-yl)-3-methyl-4,5-dihydropyrrolo[3,4-c]pyrazol-6(2H)-one] | 0.095 | 0.069 | 0.061 | 0.56 | 0.0981 | > 10 | 0.124
3 | Cc1nn(C)c2c1C(c1ccc(Cl)cc1)N(c1cc(C)c(=O)n(C)c1)C2=O (stereo not shown) [Example 57, 4-(4-chlorophenyl)-5-(1,5-dimethyl-6-oxo-1,6-dihydropyridin-3-yl)-1,3-dimethyl-4,5-dihydropyrrolo[3,4-c]pyrazol-6(1H)-one] | 0.12 | 0.27 | 0.13 | 6.8 | 0.109 | > 10 | 0.24
4 | Cc1nn(C)c2c1C(c1ccc(Cl)cc1)N(c1cc(Cl)c(=O)n(C)c1)C2=O (stereo not shown) [Example 58, 5-(5-chloro-1-methyl-6-oxo-1,6-dihydropyridin-3-yl)-4-(4-chlorophenyl)-1,3-dimethyl-4,5-dihydropyrrolo[3,4-c]pyrazol-6(1H)-one] | 0.41 | 0.56 | 0.29 | 8.2 | 0.157 | > 10 | 0.38
5 | CCc1nn(-c2cnc(OC)nc2OC)c2c1C(c1ccc(Cl)cc1)N(c1cc(C)c(=O)n(C)c1)C2=O (stereo not shown) [Example 60, 4-(4-chlorophenyl)-1-(2,4-dimethoxypyrimidin-5-yl)-5-(1,5-dimethyl-6-oxo-1,6-dihydropyridin-3-yl)-3-ethyl-4,5-dihydropyrrolo[3,4-c]pyrazol-6(1H)-one] | 0.14 | 0.16 | 0.12 | 8.8 | 0.154 | > 10 | 0.302
6 | COc1ncc(-n2nc3c(c2C(C)C)[C@@H](c2ccc(Cl)cc2)N(c2cc(C)c4onc(C)c4c2)C3=O)c(OC)n1 [Example 62, (R)-4-(4-chlorophenyl)-2-(2,4-dimethoxypyrimidin-5-yl)-5-(3,7-dimethylbenzo[d]-isoxazol-5-yl)-3-isopropyl-4,5-dihydropyrrolo[3,4-c]pyrazol-6(2H)-one] | 0.067 | 0.06 | 0.072 | 1.7 | 0.105 | > 10 | 0.174
7 | Cc1nn(C(C)C)c2c1C(c1ccc(Cl)cc1)N(c1cc(C)c(=O)n(C)c1)C2=O (stereo not shown) [Example 63, 4-(4-chlorophenyl)-5-(1,5-dimethyl-6-oxo-1,6-dihydropyridin-3-yl)-1-isopropyl-3-methyl-4,5-dihydropyrrolo[3,4-c]pyrazol-6(1H)-one] | 0.09 | 0.13 | 0.088 | 2.5 | 0.0509 | > 10 | 0.115
8 | Cc1cc(N2C(=O)c3nn(C(C)C)c(C)c3C2c2ccc(Cl)cc2)cn(C)c1=O (stereo not shown) [Example 64, 4-(4-chlorophenyl)-5-(1,5-dimethyl-6-oxo-1,6-dihydropyridin-3-yl)-2-isopropyl-3-methyl-4,5-dihydropyrrolo[3,4-c]pyrazol-6(2H)-one] | 0.13 | 0.18 | 0.11 | 0.4 | 0.0423 | > 10 | 0.113

More lines, in order of falling IC50 (His-Brd4(44-477)), values ahead:

Row | IC50 (His-Brd4(44-477)) [µM] | IC50 (His-Brd2(60-472)) [µM] | IC50 (His-Brd3(20-477)) [µM] | IC50 [1] [µM] | SMILES | IC (total growth inhibition) (MV-4-11 cells) [µM] | IC (total growth inhibition) (K-562 cells) [µM] | IC (total growth inhibition) (THP-1 cells) [µM]
9 | 0.39 | 0.61 | 0.48 | 7.3 | COc1nccc(-n2nc(C)c3c2C(=O)N(c2cc(C)c(=O)n(C)c2)C3c2ccc(Cl)cc2)n1 (stereo not shown) [Example 59, 4-(4-chlorophenyl)-5-(1,5-dimethyl-6-oxo-1,6-dihydropyridin-3-yl)-1-(2-methoxypyrimidin-4-yl)-3-methyl-4,5-dihydropyrrolo[3,4-c]pyrazol-6(1H)-one] | 0.325 | > 10 | 0.598
10 | 0.27 | 0.21 | 0.28 | 1.5 | COc1ncc(-n2nc3c(c2C(F)(F)F)C(c2ccc(Cl)cc2)N(c2cc(Cl)c(=O)n(C)c2)C3=O)c(OC)n1 (stereo not shown) [Example 47, 5-(5-chloro-1-methyl-6-oxo-1,6-dihydropyridin-3-yl)-4-(4-chlorophenyl)-2-(2,4-dimethoxypyrimidin-5-yl)-3-(trifluoromethyl)-4,5-dihydropyrrolo[3,4-c]pyrazol-6(2H)-one] | 0.158 | > 10 | 0.755
11 | 0.2 | 0.24 | 0.13 | 0.42 | Cc1c2c(nn1C(C)C)C(=O)N(c1cc(Cl)c(=O)n(C)c1)C2c1ccc(Cl)cc1 (stereo not shown) [Example 65, 5-(5-chloro-1-methyl-6-oxo-1,6-dihydropyridin-3-yl)-4-(4-chlorophenyl)-2-isopropyl-3-methyl-4,5-dihydropyrrolo[3,4-c]pyrazol-6(2H)-one] | 0.109 | > 10 | 0.217
12 | 0.12 | 0.16 | 0.11 | 2.6 | Cc1nn(C(C)C)c2c1C(c1ccc(Cl)cc1)N(c1cc(Cl)c(=O)n(C)c1)C2=O (stereo not shown) [Example 66, 5-(5-chloro-1-methyl-6-oxo-1,6-dihydropyridin-3-yl)-4-(4-chlorophenyl)-1-isopropyl-3-methyl-4,5-dihydropyrrolo[3,4-c]pyrazol-6(1H)-one] | 0.106 | > 10 | 0.248
13 | 0.085 | 0.06 | 0.1 | 4.8 | Cc1cc(N2C(=O)c3c(c(C(F)(F)F)nn3C3CC3)C2c2ccc(Cl)cc2)cn(C)c1=O (stereo not shown) [Example 45, 4-(4-chlorophenyl)-1-cyclopropyl-5-(1,5-dimethyl-6-oxo-1,6-dihydropyridin-3-yl)-3-(trifluoromethyl)-4,5-dihydropyrrolo[3,4-c]pyrazol-6(1H)-one] | 0.373 | > 10 | 0.698
